# Assay results: patent US8889683B2, “Substituted quinoxalines as inhibitors of fatty acid binding protein” (Merck Sharp & Dohme Corp., priority 2010, dated 2014)
# Target: FABP4 (Homo sapiens, UniProt P15090)
# Assay: TdF-based ligand binding affinity (FABP inhibitory activity assay)
# Conditions: TdF-based ligand binding affinity constant
# Description: Theoretical basis for TdF-based ligand binding affinity constant
# The derivation of TdF-based ligand binding affinity constant (Kd) followed closely those previously formulated by Brandts and Lin, Biochemistry 29 (1990) 6927-6940. In brief, the binding constant of the ligand at the Tm is expressed as below: […]
# where T0 is the midpoint of unfolding for unliganded protein and Tm is the midpoint of unfolding in presence of ligand. [LTm] is free ligand at Tm. The ΔHu and ΔCpu are the enthalpy of unfolding and heat capacity change of unfolding for the protein respectively. The ΔCPu is proportional to the size of protein and is an approximate quantity in the above equation (empirically, ΔCpu=(MW of protein/115)*14 cal/mol*K). Following algorithm derived by Mayhood et al, (Analytical Biochemistry 345 (2005) 187-197), the T0 and ΔHu can be determined separately from nonlinear regression fitting the temperature dependent protein alone curve to the following equation: […]
# The nonlinear regression fitting in general readily reaches convergence by properly constraining the initial values for the fitting parameters (e.g. the initial “guess” for the ΔHu was constrained to 120 kcal/mol; initial Yn and mr, were set to 1 and zero to best represent the melting curve along the low temperature region; negative slope of −0.5 was initially chosen for mu; initial Tm was also constrained to 50° C.).
# (see Brandts et al and Mayhood et al, shown above) where ΔHL (T) is the van't Hoff enthalpy of ligand binding at temperature T and ΔCpL is the heat capacity upon ligand binding. For simplicity, the ΔCpL and ΔHL (T) were set to zero and −7 kcal/mol respectively. (The ΔCpL accounts for minimal portion of total protein-ligand binding energetics and is therefore set to zero (For example, see Hossein Naghibi et al, Proc. Natl. Acad. Sci. 92, 5597-5599 (1995), where ΔCpL was estimated to ˜2% of ΔHL at 25° C. obtained from calorimetric study of binding RNase A and 2′-CMP)).
# FABP4, sequence (P15090 whole entry): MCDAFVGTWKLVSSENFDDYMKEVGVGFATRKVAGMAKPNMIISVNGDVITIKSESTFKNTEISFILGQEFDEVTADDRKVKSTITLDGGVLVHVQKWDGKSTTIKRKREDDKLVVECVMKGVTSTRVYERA
row,Compound,Kd
1,"O=C(c1nc2ccc(S(=O)(=O)C(F)(F)F)cc2nc1O)N1CCCC1Cc1cccc(Cl)c1 (racemic) [Compound 1-25, (+/−)-[2-(3-Chlorobenzyl)pyrrolidin-1-yl][3-hydroxy-6-(trifluoromethylsulfonyl)quinoxalin-2-yl]methanone]",0.1 µM
2,"COc1ccc2nc(O)c(C(=O)N3CCCC3Cc3cccc(Cl)c3)nc2c1 (racemic) [Compound 1-27, (+/−)-[2-(3-Chlorobenzyl)pyrrolidin-1-yl](3-hydroxy-7-methoxyquinoxalin-2-yl)methanone]",4.94 µM
3,"O=C(c1nc2cccc(C(F)(F)F)c2nc1O)N1CCCC1Cc1cccc(Cl)c1 (racemic) [Compound 1-30, (+/−)-[2-(3-Chlorobenzyl)pyrrolidin-1-yl][3-hydroxy-5-(trifluoromethyl)quinoxalin-2-yl]methanone]",0.002 µM
4,"N#Cc1ccc2nc(C(=O)N3CCCC3Cc3cccc(Cl)c3)c(O)nc2c1 (racemic) [Compound 1-31, (+/−)-2-[2-(3-Chlorobenzyl)pyrrolidine-1-carbonyl]-3-hydroxyquinoxaline-6-carbonitrile]",0.5 µM
5,"O=C(c1nc2ncccc2nc1O)N1CCCC1Cc1cccc(Cl)c1 (racemic) [Compound 1-32, (+/−)-[2-(3-Chlorobenzyl)pyrrolidin-1-yl](2-hydroxypyrido[2,3-b]pyrazin-3-yl)methanone]",0.3 µM
6,"O=C(c1nc2cccnc2nc1O)N1CCCC1Cc1cccc(Cl)c1 (racemic) [Compound 1-33, (+/−)-[2-(3-Chlorobenzyl)pyrrolidin-1-yl](3-hydroxypyrido[3,2-b]pyrazin-2-yl)methanone]",0.6 µM
7,"O=C(c1nc2cc(Br)ccc2nc1O)N1CCCC1Cc1cccc(Cl)c1 (racemic) [Compound 1-37, (+/−)-(7-Bromo-3-hydroxyquinoxalin-2-yl)[2-(3-chlorobenzyl)pyrrolidin-1-yl]methanone]",0.85 µM
8,"COc1cc2nc(O)c(C(=O)N3CCCC3Cc3cccc(Cl)c3)nc2cc1OC (racemic) [Compound 1-38, (+/−)-[2-(3-Chlorobenzyl)pyrrolidin-1-yl](3-hydroxy-6,7-dimethoxyquinoxalin-2-yl)methanone]",22.5 µM
9,"O=C(c1nc2ccc(C(F)(F)F)cc2nc1O)N1CCCC1Cc1cccc(Cl)c1 (racemic) [Compound 1-39, (+/−)-[2-(3-Chlorobenzyl)pyrrolidin-1-yl][3-hydroxy-6-(trifluoromethyl)quinoxalin-2-yl]methanone]",0.2 µM
10,"Cc1ccc(CC2CCCN2C(=O)c2nc3ccccc3nc2O)cc1C (racemic) [Compound 1-42, (+/−)-[2-(3,4-Dimethylbenzyl)pyrrolidin-1-yl](3-hydroxyquinoxalin-2-yl)methanone]",1.34 µM
11,"CCC(c1ccccc1)C1CCCN1C(=O)c1nc2ccccc2nc1O (racemic) [Compound 1-48, (+/−)-(3-Hydroxyquinoxalin-2-yl)[2-(1-phenylpropyl)pyrrolidin-1-yl]methanone]",11.9 µM
12,"O=C(c1nc2ccccc2nc1O)N1CCCC1Cc1cccc(F)c1 (racemic) [Compound 1-51, (+/−)-[2-(3-Fluorobenzyl)pyrrolidin-1-yl](3-hydroxyquinoxalin-2-yl)methanone]",1.8 µM
13,"O=C(c1nc2ccccc2nc1O)N1CCCC1Cc1c(F)cccc1Cl (racemic) [Compound 1-52, (+/−)-[2-(2-Chloro-6-fluorobenzyl)pyrrolidin-1-yl](3-hydroxyquinoxalin-2-yl)methanone]",5.68 µM
14,"O=C(c1nc2ccccc2nc1O)N1CCCC1COc1ccc(F)cc1 (racemic) [Compound 1-55, (+/−)-{2-[(4-fluorophenoxy)methyl]pyrrolidin-1-yl}(3-hydroxyquinoxalin-2-yl)methanone]",23 µM
15,"O=C(c1nc2ccccc2nc1O)N1CCCC1COc1ccc(F)c(Cl)c1 (racemic) [Compound 1-64, (+/−)-{2-[(3-Chloro-4-fluorophenoxy)methyl]pyrrolidin-1-yl}(3-hydroxyquinoxalin-2-yl)methanone]",15.1 µM
16,"O=C(c1nc2ccccc2nc1O)N1CCCCC1Cc1ccccc1 (racemic) [Compound 1-72, (+/−)-(2-Benzylpiperidin-1-yl)(3-hydroxyquinoxalin-2-yl)methanone]",14.2 µM
17,"COc1ccccc1CC1CCCCN1C(=O)c1nc2ccccc2nc1O (racemic) [Compound 1-73, (+/−)-(3-Hydroxyquinoxalin-2-yl)[2-(2-methoxybenzyl)piperidin-1-yl]methanone]",2.25 µM
18,"O=C(c1nc2ccccc2nc1O)N1CCCCC1Cc1cccc(F)c1 (racemic) [Compound 1-74, (+/−)-[2-(3-Fluorobenzyl)piperidin-1-yl](3-hydroxyquinoxalin-2-yl)methanone]",4.4 µM
19,"O=C(c1nc2cc(F)cc(F)c2nc1O)N1CCC[C@H]1Cc1cc(Cl)cc(Cl)c1 [9-16, (S)-(2-(3,5-dichlorobenzyl)pyrrolidin-1-yl)(5,7-difluoro-3-hydroxyquinoxalin-2-yl)methanone]",0.007 µM
20,"O=C(c1nc2c(F)cc(F)cc2nc1O)N1CCC[C@H]1Cc1cc(Cl)cc(Cl)c1 [9-18, (S)-(2-(3,5-dichlorobenzyl)pyrrolidin-1-yl)(6,8-difluoro-3-hydroxyquinoxalin-2-yl)methanone]",0.05 µM
21,"O=C(c1nc2ccccc2nc1O)N1CCC[C@H]1CNc1ccccc1 [Compound 1-65, (S)-(3-Hydroxyquinoxalin-2-yl){2-[(phenylamino)methyl]pyrrolidin-1-yl}methanone]",22.7 µM

# The remaining lines, values ahead:
row,Kd,Compound
1,0.98 µM,"O=C(c1nc2ccccc2nc1O)N1CCCCC1Cc1cccc(C(F)(F)F)c1 (racemic) [Compound 1-75, (+/−)-(3-Hydroxyquinoxalin-2-yl) {2-[3-(trifluoromethyl)benzyl]piperidin-1-yl}methanone]"
2,4.7 µM,"O=C(c1nc2ccccc2nc1O)N1CCCCC1Cc1ccc(F)cc1 (racemic) [Compound 1-79, (+/−)-[2-(4-Fluorobenzyl)piperidin-1-yl](3-hydroxyquinoxalin-2-yl)methanone]"
3,4.76 µM,"COc1ccc(CC2CCCCN2C(=O)c2nc3ccccc3nc2O)cc1 (racemic) [Compound 1-80, (+/−)-(3-Hydroxyquinoxalin-2-yl)[2-(4-methoxybenzyl)piperidin-1-yl]methanone]"
4,16.2 µM,"O=C(c1nc2ccccc2nc1O)N1CCCC(Cc2ccccc2)C1 (racemic) [Compound 1-83, (+/−)-(3-Benzylpiperidin-1-yl)(3-hydroxyquinoxalin-2-yl)methanone]"
5,11 µM,"COc1cccc(CC2CCCN(C(=O)c3nc4ccccc4nc3O)C2)c1 (racemic) [Compound 1-85, (+/−)-(3-Hydroxyquinoxalin-2-yl)[3-(3-methoxybenzyl)piperidin-1-yl]methanone]"
6,8.6 µM,"O=C(c1nc2ccccc2nc1O)N1CCCC(Cc2cccc(F)c2)C1 (racemic) [Compound 1-86, (+/−)-[3-(3-Fluorobenzyl)piperidin-1-yl](3-hydroxyquinoxalin-2-yl)methanone]"
7,5.5 µM,"O=C(c1nc2ccccc2nc1O)N1CCCC(Cc2ccc(F)cc2)C1 (racemic) [Compound 1-88, (+/−)-[3-(4-Fluorobenzyl)piperidin-1-yl](3-hydroxyquinoxalin-2-yl)methanone]"
8,1.84 µM,"Cc1cccc(CC2CCCCCN2C(=O)c2nc3ccccc3nc2O)c1 (racemic) [Compound 1-91, (+/−)-(3-Hydroxyquinoxalin-2-yl)[2-(3-methylbenzyl)azepan-1-yl]methanone]"
9,9 µM,"O=C(c1nc2ccccc2nc1O)N1CCCCCC1Cc1ccc(Cl)cc1 (racemic) [Compound 1-93, (+/−)-[2-(4-Chlorobenzyl)azepan-1-yl](3-hydroxyquinoxalin-2-yl)methanone]"
10,28.4 µM,CN(Cc1ccccc1)C(=O)c1nc2ccccc2nc1O [Compound 1-98]
11,0.95 µM,O=C(c1nc2ccccc2nc1O)N1CCCC1Cc1cccc(Cl)c1 (stereo not shown) [Compound 1-99]
12,1.8 µM,O=C(c1nc2ccccc2nc1O)N1CCCC1Cc1ccccc1Cl (stereo not shown) [Compound 1-115]
13,4.6 µM,O=C(c1nc2ccccc2nc1O)N1CCCC1Cc1ccccc1 (stereo not shown) [Compound 1-116]
14,9.8 µM,Cc1ccc(CC2CCCN2C(=O)c2nc3ccccc3nc2O)cc1 (stereo not shown) [Compound 1-117]
15,11.3 µM,Cc1ccc(C(C)C)cc1N(C)C(=O)c1nc2ccccc2nc1O [Compound 1-124]
16,31 µM,CCCN(CC1CC1)C(=O)c1nc2ccccc2nc1O [Compound 1-137]
17,12.7 µM,CN(CCc1ccccc1)C(=O)c1nc2ccccc2nc1O [Compound 1-139]
18,23.2 µM,CC(C)CN(C)C(=O)c1nc2ccccc2nc1O [Compound 1-140]
19,26.1 µM,COc1ccc(CCN(C)C(=O)c2nc3ccccc3nc2O)cc1OC [Compound 1-141]
20,23.1 µM,CN(Cc1cccc(Cl)c1)C(=O)c1nc2ccccc2nc1O [Compound 1-143]
21,2.9 µM,O=C(c1nc2ccccc2nc1O)N1CCCC1Cc1ccccc1F (stereo not shown) [Compound 1-153]
22,2.7 µM,CN(CCc1cccc(Cl)c1)C(=O)c1nc2ccccc2nc1O [Compound 1-156]
